One compound from patent publication US20070231375A1, “Liposome combination and the use thereof” (Taipei Medical University, priority 2006, published 2007) can be followed below.

Each structure is given as a SMILES string.

The subject of one experiment is CL1-0 cells. As to the kind of experiment: MTT Assay-2 (CL1-0). Type of experiment: cell-based. Conditions: 0.5 μg/ml Doxorubicin; no light.
A further experiment has as its system A431 cells. As to the kind of experiment: MTT Assay-2 (A431). Type of experiment: cell-based. Conditions: 0.5 μg/ml Doxorubicin, no light. As for the experimental part:
A431 or CL1-5 cells (approx. 5000 cells) were seeded in each well of a 96-well plate and incubated in medium. After 24 hr of incubation, Doxorubicin (FD), Liposomal-Doxorubicin (LD) and Liposomal-Doxorubicin-Hematoporphyrin (LDH) was added into each well and drug concentration was set at 0.5 μg/ml Doxorubicin and 0.3 μg/ml Hp, After 2 hr, the cells of experiment group were illuminated for 10, 20, or 30 J/cm^2, and MTT assay was performed 72 hr later.

Turning to `COc1cccc2c1C(=O)c1c(O)c3c(c(O)c1C2=O)C[C@@](O)(C(=O)CO)C[C@@H]3O[C@H]1C[C@H](N)[C@H](O)[C@H](C)O1` [FD, Doxorubicin], in the experiment on CL1-0 cells, the “toxicity to cell CL1-0 (in words)” value was “has toxicity to cell CL1-0 significantly”. Moreover, the “toxicity to cell A431 (in words)” value in the experiment on A431 cells is given as “has toxicity to cell A431 significantly”. For the same compound, the “activity of mitochondia dehydrogenase (of control group)” value in the experiment with A431 cells (A431, 0.3 μg/ml Hp, MTT 72 hr) is recorded as “about 30%”.
